Assay results from patent US10961238B2, “Modulators of hedgehog (Hh) signaling pathway” (E-THERAPEUTICS PLC, priority 2016, dated 2021).
pIC50: −log10 of the molar value.

tested on: C3H10T1/2 cells; test: C3H assay: differentiation of C3H10T1/2 cells by mSHH, measurement of alkaline phosphatase; format: cell-based, mouse; conditions: Mus musculus, C3H 10T1/2; C3H10T1/2 cells stimulated with mSHH for 72 hours; alkaline phosphatase activity; read-out: IC50 Ranges

With `CC(C)(C)OC(=O)N1CCn2c(C3CCN(S(=O)(=O)C4CN(C(=O)OC(C)(C)C)C4)CC3)cnc2C1` [Compound 4, tert-butyl 3-[1-[1-[(2-methylpropan-2-yl)oxycarbonyl]azetidin-3-yl]sulfonylpiper-idin-4-yl]-6,8-dihydro-5H-imidazo[1,2-a]pyrazine-7-carboxylate] as the compound, how does the pIC50 read?
Its pIC50 is 5.00 to 6.00.

`CC(C)(C)OC(=O)N1CC(S(=O)(=O)N2CCC(c3cnc4n3CCC4)CC2)C1` [Compound 5, tert-butyl 3-[4-(6,7-dihydro-5H-pyrrolo[1,2-a]imidazol-3-yl)piperidin-1-yl]sulfonylaze-tidine-1-carboxylate] was tested. Which pIC50 did it give?
The pIC50 was 5.00 to 6.00.

With `COc1ccc(C2CCN(S(=O)(=O)C3CN(C(=O)OC(C)(C)C)C3)CC2)cc1` [Compound 6, tert-butyl 3-[4-(4-methoxyphenyl)piperidin-1-yl]sulfonylaze-tidine-1-carboxylate] as the compound, how does the pIC50 read?
Its pIC50 is 6.00 to 7.00.

With `CC(C)(C)OC(=O)N1CCC(S(=O)(=O)N2CCC(c3ccnc4[nH]ccc34)CC2)CC1` [Compound 7, tert-butyl 4-[4-(1H-pyrrolo[2,3-b]pyridin-4-yl)piperidin-1-yl]sulfonylpiper-idine-1-carboxylate] as the compound, how does the pIC50 read?
Its pIC50 is 6.00 to 7.00.

How did the pIC50 turn out when `Cc1ccc(S(=O)(=O)n2ccc3c(C4CCN(S(=O)(=O)C5CCN(C(=O)OC(C)(C)C)CC5)CC4)ccnc32)cc1` [Compound 8, tert-butyl 4-[4-[1-(4-methylphenyl)-sulfonylpyrrolo[2,3-b]pyridin-4-yl]piperidin-1-yl]sulfonylpiper-idine-1-carboxylate] was run?
Its pIC50 is 7.00 to 8.00.

`Cc1ccc(C2CCN(S(=O)(=O)C3CCN(C(=O)OC(C)(C)C)CC3)CC2)c(C)c1` [Compound 9, tert-butyl 4-[4-(2,4-dimethylphenyl)piperidin-1-yl]sulfonylpiper-idine-1-carboxylate] was tested. Which pIC50 did it give?
Its pIC50 is 5.00 to 6.00.

`CC(C)(C)OC(=O)N1CCC(S(=O)(=O)N2CCC(c3ncnc4[nH]ccc34)CC2)CC1` [Compound 10, tert-butyl 4-[4-(7H-pyrrolo[2,3-d]pyrimidin-4-yl)piperidin-1-yl]sulfonylpiper-idine-1-carboxylate] was tested. Which pIC50 did it give?
Its pIC50 is 5.00 to 6.00.

With `CC(C)(C)OC(=O)N1CCC(S(=O)(=O)N2CCC(c3ccnc4ccccc34)CC2)CC1` [Compound 11, tert-butyl 4-(4-quinolin-4-ylpiperidin-1-yl)sulfonylpiper-idine-1-carboxylate] as the compound, how does the pIC50 read?
Its pIC50 is 6.00 to 7.00.

How did the pIC50 turn out when `Cc1ccc(S(=O)(=O)n2ccc3c(C4CCN(S(=O)(=O)C5CCN(C(=O)OC(C)(C)C)CC5)CC4)ncnc32)cc1` [Compound 12, tert-butyl 4-[4-[7-(4-methylphenyl)-sulfonylpyrrolo[2,3-d]pyrimidin-4-yl]piperidin-1-yl]sulfonylpiper-idine-1-carboxylate] was run?
Its pIC50 is 6.00 to 7.00.

`COc1ccc(C2CCN(S(=O)(=O)C3CCN(C(=O)OC(C)(C)C)CC3)CC2)cc1` [Compound 13, tert-butyl 4-[4-(4-methoxyphenyl)piperidin-1-yl]sulfonylpiper-idine-1-carboxylate] was tested. Which pIC50 did it give?
The pIC50 was 6.00 to 7.00.

With `CC(C)(C)OC(=O)N1CCC(S(=O)(=O)N2CCC(c3ccccc3)CC2)CC1` [Compound 14, tert-butyl 4-(4-phenylpiperidin-1-yl)sulfonylpiper-idine-1-carboxylate] as the compound, how does the pIC50 read?
The pIC50 was 6.00 to 7.00.

How did the pIC50 turn out when `COC(=O)c1cnc2[nH]cc(C3CCN(S(=O)(=O)C4CN(C(=O)OC(C)(C)C)C4)CC3)c2c1` [Compound 15, methyl 3-[1-[1-[(2-methylpropan-2-yl)oxycarbonyl]azetidin-3-yl]sulfonylpiper-idin-4-yl]-1H-pyrrolo[2,3-b]pyridine-5-carboxylate] was run?
The pIC50 was 5.00 to 6.00.

How did the pIC50 turn out when `CC(C)(C)OC(=O)N1CC(S(=O)(=O)N2CCC(c3csc4cccnc34)CC2)C1` [Compound 17, tert-butyl 3-(4-thieno[3,2-b]pyridin-3-ylpiperidin-1-yl)sulfonylaze-tidine-1-carboxylate] was run?
The pIC50 was 7.00 to 8.00.

How did the pIC50 turn out when `CC(C)(C)OC(=O)N1CCC(S(=O)(=O)N2CCC(c3csc4cccnc34)CC2)CC1` [Compound 18, tert-butyl 4-(4-thieno[3,2-b]pyridin-3-ylpiperidin-1-yl)sulfonylpiper-idine-1-carboxylate] was run?
The pIC50 was 7.00 to 8.00.

How did the pIC50 turn out when `CC(C)(C)OC(=O)N1CCC(S(=O)(=O)N2CCC(c3c[nH]c4ncccc34)CC2)CC1` [Compound 19, tert-butyl 4-[4-(1H-pyrrolo[2,3-b]pyridin-3-yl)piperidin-1-yl]sulfonylpiper-idine-1-carboxylate] was run?
Its pIC50 is 7.00 to 8.00.

`CC(C)(C)OC(=O)N1CCC(S(=O)(=O)N2CCC(C3CCOCC3)CC2)CC1` [Compound 20, tert-butyl 4-[4-(oxan-4-yl)piperidin-1-yl]sulfonylpiper-idine-1-carboxylate] was tested. Which pIC50 did it give?
Its pIC50 is 5.00 to 6.00.

With `O=C(Nc1ccccc1)N1CCC(S(=O)(=O)N2CCC(c3ccncc3)CC2)CC1` [Compound 21, N-phenyl-4-(4-pyridin-4-ylpiperidin-1-yl)sulfonylpiper-idine-1-carboxamide] as the compound, how does the pIC50 read?
The pIC50 was 5.00 to 6.00.

With `CC(C)(C)OC(=O)N1CC(S(=O)(=O)N2CCC(c3ccncc3)CC2)C1` [Compound 22, tert-butyl 3-(4-pyridin-4-ylpiperidin-1-yl)sulfonylaze-tidine-1-carboxylate] as the compound, how does the pIC50 read?
Its pIC50 is 6.00 to 7.00.

With `CC(C)(C)OC(=O)N1CCC(S(=O)(=O)N2CCC(c3ccncc3)CC2)CC1` [Compound 23, tert-butyl 4-(4-pyridin-4-ylpiperidin-1-yl)sulfonylpiper-idine-1-carboxylate] as the compound, how does the pIC50 read?
The pIC50 was 6.00 to 7.00.

With `CC(C)C(CO)NC(=O)N1CC(S(=O)(=O)N2CCC(c3ccncc3)CC2)C1` (stereo not drawn) [Compound 24, 3-(4-pyridin-4-ylpiperidin-1-yl)sulfonyl-N-[1-hydroxy-3-methylbutan-2-yl]azetidine-1-carboxamide] as the compound, how does the pIC50 read?
Its pIC50 is 6.00 to 7.00.

With `Cc1noc(C)c1NC(=O)N1CC(S(=O)(=O)N2CCC(c3cccnn3)CC2)C1` [Compound 25, N-(3,5-dimethyl-1,2-oxazol-4-yl)-3-(4-pyridazin-3-ylpiperidin-1-yl)sulfonylaze-tidine-1-carboxamide] as the compound, how does the pIC50 read?
The pIC50 was 5.00 to 6.00.

How did the pIC50 turn out when `COc1ccccc1OC(=O)N1CC(S(=O)(=O)N2CCC(c3ccncc3)CC2)C1` [Compound 27, (2-methoxyphenyl) 3-(4-pyridin-4-ylpiperidin-1-yl)sulfonylaze-tidine-1-carboxylate] was run?
Its pIC50 is 7.00 to 8.00.

`COC1CCC(OC(=O)N2CC(S(=O)(=O)N3CCC(c4ccncc4)CC3)C2)CC1` (stereo not drawn) [Compound 28, (4-methoxycyclo-hexyl) 3-(4-pyridin-4-9-ylpiperidin-1-yl)sulfonylaze-tidine-1-carboxylate] was tested. Which pIC50 did it give?
The pIC50 was 6.00 to 7.00.

`O=C(OC1CCOCC1)N1CC(S(=O)(=O)N2CCC(c3ccncc3)CC2)C1` [Compound 29, oxan-4-yl 3-(4-pyridin-4-ylpiperidin-1-yl)sulfonylaze-tidine-1-carboxylate] was tested. Which pIC50 did it give?
Its pIC50 is 5.00 to 6.00.

`O=C(OCC1CCCO1)N1CC(S(=O)(=O)N2CCC(c3ccncc3)CC2)C1` (stereo not drawn) [Compound 30, (oxolan-2-yl)methyl 3-(4-pyridin-4-ylpiperidin-1-yl)sulfonylaze-tidine-1-carboxylate] was tested. Which pIC50 did it give?
Its pIC50 is 5.00 to 6.00.

With `CN(C(=O)N1CC(S(=O)(=O)N2CCC(c3ccncc3)CC2)C1)C(C)(C)C` [Compound 31, N-tert-butyl-N-methyl-3-(4-pyridin-4-ylpiperidin-1-yl)sulfonylaze-tidine-1-carboxamide] as the compound, how does the pIC50 read?
The pIC50 was 6.00 to 7.00.

How did the pIC50 turn out when `CC1(C)COCC(C)(C)N1C(=O)N1CC(S(=O)(=O)N2CCC(c3ccncc3)CC2)C1` [Compound 32, [3-(4-pyridin-4-ylpiperidin-1-yl)sulfonylaze-tidin-1-yl]-(3,3,5,5-tetramethylmor-pholin-4-yl)methanone] was run?
Its pIC50 is 6.00 to 7.00.
